{"source": "patent US20230145764A1", "about": "“BLOOD-BASED TUMOR MUTATION BURDEN PREDICTS OVERALL SURVIVAL IN NSCLC” (MEDIMMUNE, LLC, priority 2018, published 2023)", "key": {"PD-L1": {"biological_target": "PD-L1 (Homo sapiens, UniProt Q9NZQ7)", "sequence (Q9NZQ7 19-290)": "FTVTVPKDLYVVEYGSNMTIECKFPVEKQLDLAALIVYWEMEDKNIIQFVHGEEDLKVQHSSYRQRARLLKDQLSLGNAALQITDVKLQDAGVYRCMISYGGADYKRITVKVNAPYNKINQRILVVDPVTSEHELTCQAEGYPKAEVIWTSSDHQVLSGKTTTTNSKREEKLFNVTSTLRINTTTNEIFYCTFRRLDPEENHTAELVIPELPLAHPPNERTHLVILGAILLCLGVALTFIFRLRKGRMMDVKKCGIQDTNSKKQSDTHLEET", "conditions": "in vitro; cited from earlier work"}, "xenograft model": {"tested_on": "xenograft model", "conditions": "via a T-cell dependent mechanism; cited from earlier work"}, "metastatic NSCLC [1]": {"tested_on": "metastatic NSCLC", "assay": "MYSTIC phase 3 study, efficacy (OS, PFS, tumor response) in ITT population and PD-L1 expression subgroups", "assay_type": "in vivo, human", "conditions": "for ORR, %: BICR per RECIST v1.1", "excerpt": "Adult patients with Stage IV NSCLC were eligible provided they had not previously received systemic therapy for advanced/metastatic NSCLC, had Eastern Cooperative Oncology Group performance status 0-1, measurable disease according to Response Evaluation Criteria in Solid Tumors version 1.1 (RECIST v1.1) (Chaft et al., Cancer Res. 78(13 Suppl) (abstr. CT113) (2018)), and known tumor PD-L1 expression status prior to randomization. Patients with sensitizing EGFR mutations or ALK rearrangements, and those with symptomatic, unstable brain metastases were excluded.\n(§1) Patients continued treatment until objective disease progression (according to RECIST v1.1), development of an adverse event (AE) that necessitated treatment discontinuation, or withdrawal of consent.\nInvestigation of the relationship between biomarkers, including TMB, and clinical outcomes were also determined.\nPD-L1 expression was evaluated using multiple cut-offs at a central laboratory using the VENTANA PD-L1 (SP263) immunohistochemistry (IHC) assay (Ventana Medical Systems, Tucson, Ariz., USA) (Rebelatto et al., Diagn. Pathol. 11(1): 95 (2016)). Tumor samples obtained within 3 months prior to screening were permitted.\n(§2) Tumor response was assessed by BICR using RECIST v1.1, with imaging performed every 6 weeks for the first 48 weeks, then every 8 weeks, until confirmed disease progression. Patients were followed for survival. AEs were graded according to National Cancer Institute Common Terminology Criteria for Adverse Events version 4.03.\n(§3) Efficacy was analyzed on an intention-to-treat (ITT) basis, including all randomized patients or subsets of this population based on PD-L1 expression or TMB levels. Safety analyses included all patients who received at least one dose of study treatment (as-treated population).\nTo control the type I error at 5% (two-sided), a hierarchical multiple testing procedure with gatekeeping strategy was used across endpoints, analysis populations, and treatment regimens. The primary PFS analysis was performed using a stratified log-rank test adjusting for histology, with hazard ratio (HR) and 99.5% confidence interval (CI) estimated using a Cox proportional hazards model. […] Survival curves were generated using the Kaplan-Meier method.\n(§4) Odds ratios and 95% CI for comparing ORR between treatment groups were calculated using a logistic regression model, adjusted for the same factors as PFS and OS. Prespecified TMB analysis was performed using an unstratified log-rank test, with HRs and 95% Cis estimated using a Cox proportional hazards model."}, "[2]": {"assay": "MYSTIC phase 3 study, safety (adverse events, as-treated population)", "conditions": "in vivo", "protocol": "as §1, §2, §3"}, "mNSCLC": {"tested_on": "mNSCLC", "assay": "MYSTIC ctDNA mutation analysis (STK11, KEAP1, ARID1A), overall survival by mutation status", "assay_type": "in vivo, human", "protocol": "This example investigated associations between selected mutations and survival outcomes. Circulating tumour DNA from baseline plasma specimens was profiled using the GuardantOMNI platform. Samples were available from 1003 patients (89.7% of ITT population). 943 samples were mutation-evaluable. Survival outcomes were analysed in patients with or without non-synonymous somatic mutations in STK11, KEAP1, or ARID1A, or KRAS."}, "metastatic NSCLC [3]": {"tested_on": "metastatic NSCLC", "assay": "MYSTIC phase 3 study, efficacy by blood TMB (GuardantOMNI) or tissue TMB (FoundationOne) subgroup", "assay_type": "in vivo, human", "protocol": "as §1\nBlood TMB was evaluated using the GuardantOMNI next-generation sequencing platform (Guardant Health, Redwood City, Calif., USA) comprised of 500 genes (FIG. 1).\nThe OMNI TMB algorithm incorporates somatic single nucleotide variants (SNVs), short insertions/deletions (indels), copy number amplifications and fusions, and is optimized to calculate TMB on blood samples with low cell-free circulating tumor DNA content (Merck Sharp & Dohme. Keytruda® (pembrolizumab) Summary of Product Characteristics. Updated March 2019. Available at: https://www.medicines.org.uk/emc/product/6947/smpc (last accessed May 1, 2019); Reck et al., N. Engl. J. Med. 375(19): 1823-33 (2016)). Both synonymous and nonsynonymous SNVs and indels were included, with removal of those with low shedding values, low diversity, and associations with clonal hematopoiesis, germline and oncogenic driver or drug resistance mechanisms. Tissue TMB was evaluated using the FoundationOne tissue next-generation sequencing platform (Foundation Medicine, Cambridge, Mass., USA). The algorithm has been described previously (Merck Sharp & Dohme. Keytruda® (pembrolizumab) prescribing information. Updated April 2019. Available at: https://www.merck.com/product/usa/pi_circulars/k/keytruda/keytruda_pi.pdf (last accessed May 1, 2019)).\nas §3, §4"}, "[4]": {"tested_on": "natural killer (NK) ADCC activity", "conditions": "cited from earlier work"}, "Fc receptors": {"tested_on": "Fc receptors", "conditions": "cited from earlier work"}, "human CTLA-4": {"biological_target": "T1, human CTLA-4 (Homo sapiens, UniProt P16410)", "T1 sequence (P16410 36-223)": "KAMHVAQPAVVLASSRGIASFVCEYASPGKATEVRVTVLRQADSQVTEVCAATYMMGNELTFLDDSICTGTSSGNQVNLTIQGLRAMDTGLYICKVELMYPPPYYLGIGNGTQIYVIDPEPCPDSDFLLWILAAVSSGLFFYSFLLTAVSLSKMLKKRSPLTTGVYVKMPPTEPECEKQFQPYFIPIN", "conditions": "specific for human CTLA-4; cited from earlier work"}}, "data": [{"substance": "durvalumab", "values": [{"measurement": "PD-L1-mediated suppression of human T-cell activation", "setting": "PD-L1", "result": "relieve PD-L1-mediated suppression"}, {"measurement": "tumor growth in a xenograft model", "setting": "xenograft model", "result": "inhibits tumor growth"}, {"measurement": "Hazard ratio (95% CI) for death compared with chemotherapy", "setting": "metastatic NSCLC [1]; ITT population", "result": 0.96}, {"measurement": "Median overall survival, months (95% CI)", "setting": "metastatic NSCLC [1]; ITT population", "result": 12.3, "unit": "months"}, {"measurement": "Hazard ratio (95% CI) for death compared with chemotherapy", "setting": "metastatic NSCLC [1]; PD-L1 TC <1%", "result": 1.18}, {"measurement": "Median overall survival, months (95% CI)", "setting": "metastatic NSCLC [1]; PD-L1 TC <1%", "result": 10.1, "unit": "months"}, {"measurement": "Hazard ratio (95% CI) for death compared with chemotherapy", "setting": "metastatic NSCLC [1]; PD-L1 TC ≥1%", "result": 0.88}, {"measurement": "Median overall survival, months (95% CI)", "setting": "metastatic NSCLC [1]; PD-L1 TC ≥1%", "result": 14.6, "unit": "months"}, {"measurement": "24-month OS rate", "setting": "metastatic NSCLC [1]; PD-L1 TC ≥25%", "result": 38.3, "unit": "%"}, {"measurement": "Best objective response, Complete response, %", "setting": "metastatic NSCLC [1]; PD-L1 TC ≥25%", "result": "(0.6) %"}, {"measurement": "Best objective response, Not evaluable, %", "setting": "metastatic NSCLC [1]; PD-L1 TC ≥25%", "result": "(1.2) %"}, {"measurement": "Best objective response, Partial response, %", "setting": "metastatic NSCLC [1]; PD-L1 TC ≥25%", "result": "(35.0) %"}, {"measurement": "Best objective response, Progressive disease, %", "setting": "metastatic NSCLC [1]; PD-L1 TC ≥25%", "result": "(32.5) %"}, {"measurement": "Best objective response, Stable disease ≥ 6 weeks, %", "setting": "metastatic NSCLC [1]; PD-L1 TC ≥25%", "result": "(30.7) %"}, {"measurement": "HR for death vs. chemotherapy", "setting": "metastatic NSCLC [1]; PD-L1 TC ≥25%", "result": 0.76}, {"measurement": "Remaining in response (%) at 6 months", "setting": "metastatic NSCLC [1]; PD-L1 TC ≥25%", "result": 66.9, "unit": "%"}, {"measurement": "Remaining in response (%) at 12 months", "setting": "metastatic NSCLC [1]; PD-L1 TC ≥25%", "result": 61.3, "unit": "%"}, {"measurement": "difference in PFS versus chemotherapy group", "setting": "metastatic NSCLC [1]; PD-L1 TC ≥25%", "result": "no statistically significant difference"}, {"measurement": "median OS", "setting": "metastatic NSCLC [1]; PD-L1 TC ≥25% (primary analysis population)", "result": 16.3, "unit": "months"}, {"measurement": "ORR, %", "setting": "metastatic NSCLC [1]; PD-L1 TC ≥25%", "result": 35.6, "unit": "%"}, {"measurement": "ORR, %", "setting": "metastatic NSCLC [1]; PD-L1 TC ≥25%, listed as Durvalumab Monotherapy", "result": "(35.6) %"}, {"measurement": "Median DOR, months (95% CI)", "setting": "metastatic NSCLC [1]; PD-L1 TC ≥25%, Kaplan-Meier, NR = not reached", "result": "NR (9.7-NR)"}, {"measurement": "Hazard ratio (95% CI) for death compared with chemotherapy", "setting": "metastatic NSCLC [1]; PD-L1 TC ≥25-49%", "result": 0.78}, {"measurement": "Median overall survival, months (95% CI)", "setting": "metastatic NSCLC [1]; PD-L1 TC ≥25-49%", "result": 11.1, "unit": "months"}, {"measurement": "Hazard ratio (95% CI) for death compared with chemotherapy", "setting": "metastatic NSCLC [1]; PD-L1 TC ≥50%", "result": 0.76}, {"measurement": "Median overall survival, months (95% CI)", "setting": "metastatic NSCLC [1]; PD-L1 TC ≥50%", "result": 18.3, "unit": "months"}, {"measurement": "Estimated odds ratio vs. chemotherapy (95% CI)", "setting": "metastatic NSCLC [1]; in vivo", "result": 0.91}, {"measurement": "Number of events/patients", "setting": "metastatic NSCLC [1]; overall survival, ITT population", "result": "278/374"}, {"measurement": "Number of patients", "setting": "metastatic NSCLC [1]; overall survival, PD-L1 TC <1%", "result": "84/95"}, {"measurement": "Number of patients", "setting": "metastatic NSCLC [1]; overall survival, PD-L1 TC ≥1%", "result": "194/279"}, {"measurement": "Number of patients", "setting": "metastatic NSCLC [1]; overall survival, PD-L1 TC ≥25-49%", "result": "33/45"}, {"measurement": "Number of patients", "setting": "metastatic NSCLC [1]; overall survival, PD-L1 TC ≥50%", "result": "75/118"}, {"measurement": "All-grade treatment-related AEs (TRAEs), % of patients", "setting": "[2]", "result": 54.2, "unit": "%"}, {"measurement": "Immune-mediated AEs of grade 3 or 4, % of patients", "setting": "[2]", "result": 4.1, "unit": "%"}, {"measurement": "Immune-mediated AEs, % of patients", "setting": "[2]", "result": 13.6, "unit": "%"}, {"measurement": "Rates of grade ≥3 TRAEs", "setting": "[2]", "result": 14.9, "unit": "%"}, {"measurement": "TRAEs leading to discontinuation", "setting": "[2]", "result": 5.4, "unit": "%"}, {"measurement": "Treatment-related deaths, %", "setting": "[2]", "result": 0.5, "unit": "%"}, {"measurement": "Treatment-related deaths, patients", "setting": "[2]", "result": 2, "unit": "patients"}, {"measurement": "median OS (mOS)", "setting": "mNSCLC; patients with ARID1Am", "result": 8.6, "unit": "months"}, {"measurement": "median OS (mOS)", "setting": "mNSCLC; patients with ARID1Awt", "result": 13.7, "unit": "months"}, {"measurement": "median OS (mOS)", "setting": "mNSCLC; patients with KEAP1m", "result": 7.6, "unit": "months"}, {"measurement": "median OS (mOS)", "setting": "mNSCLC; patients with KEAP1wt", "result": 14.6, "unit": "months"}, {"measurement": "median OS (mOS)", "setting": "mNSCLC; patients with STK11m", "result": 10.3, "unit": "months"}, {"measurement": "median OS (mOS)", "setting": "mNSCLC; patients with STK11wt", "result": 13.3, "unit": "months"}, {"measurement": "ORR, %", "setting": "metastatic NSCLC [3]; Blood TMB <20 mut/Mb", "result": "(20.6) %"}, {"measurement": "Remaining in response (%) at 6 months", "setting": "metastatic NSCLC [3]; Blood TMB <20 mut/Mb", "result": 64.0, "unit": "%"}, {"measurement": "Remaining in response (%) at 12 months", "setting": "metastatic NSCLC [3]; Blood TMB <20 mut/Mb", "result": 59.1, "unit": "%"}, {"measurement": "ORR, %", "setting": "metastatic NSCLC [3]; Blood TMB ≥20 mut/Mb", "result": "(29.9) %"}, {"measurement": "Remaining in response (%) at 6 months", "setting": "metastatic NSCLC [3]; Blood TMB ≥20 mut/Mb", "result": 86.5, "unit": "%"}, {"measurement": "Remaining in response (%) at 12 months", "setting": "metastatic NSCLC [3]; Blood TMB ≥20 mut/Mb", "result": 80.3, "unit": "%"}, {"measurement": "HR for death versus chemotherapy", "setting": "metastatic NSCLC [3]; Tissue TMB ≥10 mut/Mb", "result": 0.70}, {"measurement": "median OS", "setting": "metastatic NSCLC [3]; Tissue TMB ≥10 mut/Mb", "result": 18.6, "unit": "months"}, {"measurement": "median OS", "setting": "metastatic NSCLC [3]; bTMB ≥20 mut/Mb", "result": 12.6, "unit": "months"}, {"measurement": "unadjusted HR for death vs. chemotherapy", "setting": "metastatic NSCLC [3]; bTMB ≥20 mut/Mb", "result": 0.72}]}, {"substance": "tremelimumab", "values": [{"measurement": "induction of natural killer (NK) ADCC activity", "setting": "[4]", "result": "does not induce"}, {"measurement": "specific binding to Fc receptors", "setting": "Fc receptors", "result": "minimal specific binding"}, {"measurement": "cross-reactivity to related human proteins", "setting": "human CTLA-4", "result": "no cross-reactivity"}]}]}
